Reference: patent EP4129324A1, “COMPOSITIONS COMPRISING AT LEAST AN AMYLIN RECEPTOR AGONIST AND A GLP-1 RECEPTOR AGONIST” (Adocia, priority 2021, dated 2023)
Entries after “also recorded” stand apart in the source; their conditions may differ.

Tested on: gastro-intestinal transit (gastric emptying) in the mouse
Assay: Gastric emptying (stomach content weight) after charcoal suspension in fasted mice, subcutaneous administration
Type: in vivo
Details: male Swiss mice, subcutaneous injection of a composition comprising pramlintide alone, versus vehicle
Description: The aim of this study was to evaluate the effects of pramlintide (compositions C7-1 and C7-2) and co-administration of pramlintide (compositions C7-1 and C7-2) and exenatide (C7-3 and C7-4) on gastro-intestinal transit (gastric emptying) in the mouse.
Co-administration means that the composition of pramlintide and the composition of exenatide were administered separately.
Studies were conducted on naive male Swiss mice (Janvier Lab) as no gender specific effect were expected. Body weight range of 25-32 g were included in the analysis.
Mice were approximately fasted for 18 hours (~T0-18 h). The gastric emptying (i.e. stomach content) was measured via the administration of a suspension of charcoal at T0 (activated charcoal (0.4 ml/mouse, […]; Sigma Reference number C9157), suspended 10% with 2.5% arabic gum in distilled water). […] Afterwards, the stomach was opened, the contents washed out and the weight recorded again (empty stomach weight).
The results are expressed as the variation of gastric content with the administration compositions comprising pramlintide compared with the gastric content with administration the vehicle (weight of gastric content with pramlintide / weight of gastric content with vehicle). […]

Substance: Lys-Cys-Asn-Thr-Ala-Thr-Cys-Ala-Thr-Gln-Arg-Leu-Ala-Asn-Phe-Leu-Val-His-Ser-Ser-Asn-Asn-Phe-Gly-Pro-lle-Leu-Pro-Pro-Thr-Asn-Val-Gly-Ser- Asn-Thr-Tyr [pramlintide]
- stomach (gastric) content weight, i.e. gastric emptying, result in words: increases the stomach content weight; also recorded: increases the gastric content weight
